The target in one experiment is T1, iNOS (Mus musculus, UniProt P29477).
T1 construct: iNOS was isolated from interferon-γ and lipopolysaacharide(LPS) stimulated mouse macrophage cells (RAW 264.7 cells); endogenous in cells; host or cells: RAW 264.7 mouse macrophage cells, induced overnight with interferon-γ and LPS; lysate partially purified on ADP sepharose
In words: Nitric oxide synthase activity assay (Griess reagent), iNOS partially purified from interferon-γ/LPS stimulated RAW 264.7 cells. It counts as biochemical. As to conditions: for IC50: 90 minutes at 37° C. (The Griess reaction detects nitrite, a stable product of nitric oxide.)

A further experiment concerns the target nNOS (Homo sapiens, UniProt P29475). Kind of experiment: Nitric oxide synthase activity assay, nNOS. In kind it is biochemical.

The structures appear in SMILES notation.

nNOS, sequence (P29475 whole entry): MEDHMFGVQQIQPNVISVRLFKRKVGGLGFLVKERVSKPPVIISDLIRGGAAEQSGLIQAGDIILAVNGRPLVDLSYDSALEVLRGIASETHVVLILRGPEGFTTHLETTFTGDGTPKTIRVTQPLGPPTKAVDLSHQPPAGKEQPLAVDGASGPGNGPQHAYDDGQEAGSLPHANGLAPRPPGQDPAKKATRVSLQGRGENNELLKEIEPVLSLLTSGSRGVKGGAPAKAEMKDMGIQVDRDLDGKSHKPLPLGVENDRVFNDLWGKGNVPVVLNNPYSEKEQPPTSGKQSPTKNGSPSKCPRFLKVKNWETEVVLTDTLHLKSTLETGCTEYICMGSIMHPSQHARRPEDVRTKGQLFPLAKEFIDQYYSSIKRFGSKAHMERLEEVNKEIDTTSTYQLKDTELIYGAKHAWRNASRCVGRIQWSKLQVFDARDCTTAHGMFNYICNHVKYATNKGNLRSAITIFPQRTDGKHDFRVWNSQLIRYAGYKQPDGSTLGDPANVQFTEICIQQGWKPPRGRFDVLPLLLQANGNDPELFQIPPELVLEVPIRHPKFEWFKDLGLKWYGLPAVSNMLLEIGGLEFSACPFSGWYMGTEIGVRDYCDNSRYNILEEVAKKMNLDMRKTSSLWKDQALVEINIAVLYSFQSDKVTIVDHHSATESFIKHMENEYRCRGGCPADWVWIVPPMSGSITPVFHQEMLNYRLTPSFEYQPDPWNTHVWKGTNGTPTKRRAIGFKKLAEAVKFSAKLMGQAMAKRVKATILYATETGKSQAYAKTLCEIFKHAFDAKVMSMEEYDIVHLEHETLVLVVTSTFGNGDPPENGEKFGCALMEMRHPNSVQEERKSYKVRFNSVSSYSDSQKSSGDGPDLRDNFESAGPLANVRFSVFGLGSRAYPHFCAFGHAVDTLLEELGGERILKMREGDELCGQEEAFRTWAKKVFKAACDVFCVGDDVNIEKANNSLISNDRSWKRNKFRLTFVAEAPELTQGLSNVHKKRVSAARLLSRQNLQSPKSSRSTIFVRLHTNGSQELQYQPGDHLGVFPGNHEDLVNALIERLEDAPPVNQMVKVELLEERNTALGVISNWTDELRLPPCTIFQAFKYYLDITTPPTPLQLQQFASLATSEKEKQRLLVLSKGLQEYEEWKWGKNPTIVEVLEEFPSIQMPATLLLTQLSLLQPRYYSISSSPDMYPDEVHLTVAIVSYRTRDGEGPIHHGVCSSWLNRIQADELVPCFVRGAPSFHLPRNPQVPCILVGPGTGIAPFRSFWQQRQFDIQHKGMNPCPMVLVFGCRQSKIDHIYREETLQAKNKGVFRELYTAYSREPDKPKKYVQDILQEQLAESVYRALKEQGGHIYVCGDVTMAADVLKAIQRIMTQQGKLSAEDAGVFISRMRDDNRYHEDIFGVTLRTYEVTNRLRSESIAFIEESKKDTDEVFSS
Protocol for iNOS: Thus, iNOS was isolated from interferon-γ and lipopolysaacharide(LPS) stimulated mouse macrophage cells (RAW 264.7 cells). RAW cells were incubated overnight with interferon-γ and LPS. A lysate fraction was prepared by lysing the harvested cells in liquid nitrogen and thawing by incubation in a 37° C. water bath and run over an ADP sepharose column for partial purification.
(§1) Nitric Oxide Synthase activity was assayed by adding 10 μL of crude lysate 10 μL of substrate and 10 μL of a selected Compound as depicted in Formula I in DMSO to 70 μL of assay buffer in a 96-well microtiter plate. The wells were mixed gently and incubated for 90 minutes at 37° C. The reaction was stopped by adding 2 units of L-lactic dehydrogenase (5 μL of stock solution) and 5 μmole of sodium pyruvate (10 μL of stock solution). The solution was incubated for an additional 15 minutes at 37° C. 100 μL of Griess reagent was added and read absorbance at 560 nm.
Protocol for nNOS: as §1

By IC50 is commonly meant the concentration needed to halve the response being measured. A high value points to weaker potency. Turning to `O=C1C=C(NCCN2CCOCC2)c2ccccc2C1=O` [Example 4], half-maximal inhibition against iNOS (IC50) required 45 µM.

By inhibition is commonly meant the drop in the measured response relative to a control, in per cent. In the case of `O=C1C=C(N2CCNCC2)c2cc(O)ccc2C1=O` [Example 11], the inhibition at 10 µM on iNOS (@ 10 μM, read-out: Percentage Inhibition iNOS) came to 34%.

As for `CN1CCN(C2=CC(=O)C(=O)c3ccccc32)CC1` [Example 6], the concentration for half-maximal inhibition (IC50) is 5.4 µM against iNOS and 2 µM on nNOS.

Take `O=C1C=C(c2ccc[nH]2)c2ccccc2C1=O` [Example 14]: half-maximal inhibition against iNOS (IC50) required 7.4 µM.

Regarding `O=C1C=C(N2CCNCC2)c2ccccc2C1=O` [Example 12], the concentration for half-maximal inhibition (IC50) is 9.9 µM against iNOS and 2.1 µM against nNOS.

Consider `COC(=O)[C@@H]1CCCN1C1=CC(=O)C(=O)c2ccccc21` [Example 10], for which half-maximal inhibition on iNOS (IC50) was put at 44 µM.

For the compound `O=C1C=C(N2CCN(C(=O)c3ccc([N+](=O)[O-])cc3)CC2)c2ccccc2C1=O` [Example 18], the concentration for half-maximal inhibition (IC50) against iNOS worked out at 6.2 µM; against nNOS, 1.2 µM.

For the compound `COC(=O)[C@H](CCC(=O)N1CCN(C2=CC(=O)C(=O)c3ccccc32)CC1)NC(=O)OCC1c2ccccc2-c2ccccc21` [Example 21], the values for the 50% inhibitory concentration (IC50) against iNOS and against nNOS were 15.6 µM and 1.9 µM, respectively.

Compound `O=C1C=C(N2CCCc3ccccc32)c2ccccc2C1=O` [Example 8] showed an IC50 at iNOS of 13 µM.

In the case of `CCN(C1=CC(=O)C(=O)c2ccccc21)c1ccccc1` [Example 2], on iNOS, the concentration for half-maximal inhibition (IC50) turned out to be 16 µM.

As to `O=C1C=C(NCCCn2ccnc2)c2ccccc2C1=O` [Example 3], on iNOS, half-maximal inhibition (IC50) was put at 41 µM.

In the case of `NCCNC1=CC(=O)C(=O)c2ccccc21` [Example 16], the half-maximal inhibitory concentration (IC50) stood at 11.2 µM against iNOS and 3.2 µM on nNOS.

For the compound `CC1CCCCN1CCCNC1=CC(=O)C(=O)c2ccccc21` (stereo not shown) [Example 5], half-maximal inhibition on iNOS (IC50) required 12 µM.

In turn, `O=C1C=C(Nc2ccccc2)c2ccccc2C1=O` [Example 1] came in with a 50% inhibitory concentration (IC50) against iNOS of 27 µM.

Consider `O=C1C=C(N2CCN(C(=O)NCc3ccccc3)CC2)c2ccccc2C1=O` [Example 19], for which the IC50 against iNOS came out at 2.2 µM; on nNOS it was 2.1 µM.

Regarding `O=C1C=C(n2cncn2)c2ccccc2C1=O` [Example 13], the IC50 against iNOS was 7.8 µM.

With `CCN1CCN(C2=CC(=O)C(=O)c3ccccc32)CC1` [Example 7], inhibition on iNOS was half-maximal at 8 µM (IC50).

`CC(=O)N1CCN(C2=CC(=O)C(=O)c3ccccc32)CC1` [Example 17] showed an IC50 on iNOS of 5.4 µM.

For the compound `CC(C)(C)OC(=O)NCCNC1=CC(=O)C(=O)c2ccccc21` [Example 15], the results for the IC50 against iNOS and on nNOS were 3.8 µM and 1.1 µM, respectively.

On iNOS, `O=C1C=C(N2CCc3ccccc32)c2ccccc2C1=O` [Example 9] returned an IC50 of 17 µM.

For the compound `N=C(N)N1CCN(C2=CC(=O)C(=O)c3ccccc32)CC1` [Example 20], the IC50 against iNOS was determined as 0.67 µM; at nNOS, 0.57 µM.

For `O=C1C(=O)c2c(nc3ccccn23)-c2ccccc21` [Example 24], the IC50 at iNOS came out at 2.3 µM; on nNOS it was 0.27 µM.

These data come from patent US5866569A, “Naphthalenedione nitric oxide synthase (NOS) inhibitors” (Ontogen Corporation, priority 1997, dated 1999).
